PubChem BioAssay (NCI)
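1) Cells in 96-well plates. 2) Compound, 48 h, 5 concentrations. 3) Linear interpolation between surrounding doses. 4) Unreached endpoint = highest concentration. TGI is the concentration that stops growth completely.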

Assays:
Experiment in all cases: NCI-60 cell line screen, 48 h
[1] = test system: SF-268 CNS
[2] = test system: SK-MEL-2 melanoma
[3] = test system: HCT-15 colon
[4] = test system: OVCAR-5 ovarian
[5] = test system: OVCAR-4 ovarian
[6] = test system: MCF7 breast
[7] = test system: SK-OV-3 ovarian
[8] = test system: PC-3 prostate
[9] = test system: SNB-19 CNS
[10] = test system: MDA-MB-435
[11] = test system: U251 CNS
[12] = test system: CCRF-CEM leukemia
[13] = test system: HS 578T breast
[14] = test system: UACC-257 melanoma
[15] = test system: HT29 colon
[16] = test system: A498 renal
[17] = test system: IGROV1 ovarian
[18] = test system: OVCAR-8 ovarian
[19] = test system: SNB-75 CNS
[20] = test system: MALME-3M melanoma
[21] = test system: KM12 colon
[22] = test system: TK-10 renal
[23] = test system: MOLT-4 leukemia
[24] = test system: HCC-2998 colon
[25] = test system: T-47D breast
[26] = test system: M14 melanoma
[27] = test system: SF-539 CNS
[28] = test system: NCI/ADR-RES ovarian
[29] = test system: BT-549 breast
[30] = test system: HL-60(TB) leukemia
[31] = test system: K-562 leukemia
[32] = test system: RPMI-8226 leukemia
[33] = test system: SK-MEL-28 melanoma
[34] = test system: HOP-62 NSCLC
[35] = test system: ACHN renal
[36] = test system: OVCAR-3 ovarian
[37] = test system: UO-31 renal
[38] = test system: CAKI-1 renal
[39] = test system: NCI-H23 lung
[40] = test system: NCI-H460 lung
[41] = test system: SF-295 CNS
[42] = test system: SW-620 colon
[43] = test system: UACC-62 melanoma
[44] = test system: DU-145 prostate
[45] = test system: SK-MEL-5 melanoma
[46] = test system: MDA-N
[47] = test system: EKVX NSCLC
[48] = test system: 786-0 renal
[49] = test system: RXF 393 renal
[50] = test system: LOX IMVI melanoma
[51] = test system: MDA-MB-231 breast
[52] = test system: A549 NSCLC
[53] = test system: HOP-92 NSCLC
[54] = test system: NCI-H522 lung
[55] = test system: HCT-116 colon
[56] = test system: COLO 205 colon
[57] = test system: SN12C renal
[58] = test system: SR leukemia
[59] = test system: NCI-H226 lung

With `C[C@]12CC[C@@H]3c4ccc(OP(=O)(O)O)cc4CC[C@H]3[C@@H]1CCC2=O` the TGI [1] was > 100 µM, the TGI [2] was > 100 µM and the TGI [3] was > 100 µM. The TGI [4] was > 100 µM, the TGI [5] was > 100 µM and the TGI [6] was > 100 µM. The TGI [7] was > 100 µM, the TGI [8] was > 100 µM and the TGI [9] was > 100 µM. For the same molecule, the TGI [10] was > 100 µM, the TGI [11] was > 100 µM and the TGI [12] was > 100 µM. For the same molecule, the TGI [13] was > 100 µM, the TGI [14] was > 100 µM and the TGI [15] was > 100 µM. For the same molecule, the TGI [16] was > 100 µM, the TGI [17] was > 100 µM and the TGI [18] was > 100 µM. For the same molecule, the TGI [19] was > 100 µM, the TGI [20] was > 100 µM and the TGI [21] was > 100 µM. The TGI [22] was > 100 µM, the TGI [23] was > 100 µM and the TGI [24] was > 100 µM. For the same molecule, the TGI [25] was > 100 µM, the TGI [26] was > 100 µM and the TGI [27] was > 100 µM. The TGI [28] was > 100 µM, the TGI [29] was > 100 µM and the TGI [30] was > 100 µM. The TGI [31] was > 100 µM, the TGI [32] was > 100 µM and the TGI [33] was > 100 µM. The TGI [34] was > 100 µM, the TGI [35] was > 100 µM and the TGI [36] was > 100 µM. The TGI [37] was > 100 µM, the TGI [38] was > 100 µM and the TGI [39] was > 100 µM. The TGI [40] was > 100 µM, the TGI [41] was > 100 µM and the TGI [42] was > 100 µM. The TGI [43] was > 100 µM, the TGI [44] was > 100 µM and the TGI [45] was 69.2 µM. The TGI [46] was > 100 µM, the TGI [47] was > 100 µM and the TGI [48] was > 100 µM. The TGI [49] was > 100 µM, the TGI [50] was > 100 µM and the TGI [51] was > 100 µM. The TGI [52] was > 100 µM, the TGI [53] was > 100 µM and the TGI [54] was > 100 µM. The TGI [55] was > 100 µM, the TGI [56] was > 100 µM and the TGI [57] was > 100 µM.

For `O=C(/C=C(\O)c1ccccc1)C(=O)NNc1ccc([N+](=O)[O-])cc1[N+](=O)[O-]`, the TGI [1] was 37.8 µM, the TGI [2] was > 100 µM and the TGI [3] was 35.4 µM. It also gave a TGI [4] of 58.7 µM, a TGI [58] of 43.6 µM and a TGI [5] of 95 µM. The TGI [6] was > 100 µM, the TGI [7] was 41.6 µM and the TGI [8] was 44.9 µM. For the same molecule, the TGI [9] was 74.6 µM, the TGI [10] was > 100 µM and the TGI [11] was 28.1 µM. It also gave a TGI [12] of 43.5 µM, a TGI [14] of 99.8 µM and a TGI [16] of 70.4 µM. The TGI [17] was 38.2 µM, the TGI [18] was 53.6 µM and the TGI [19] was 30.9 µM. The TGI [20] was 82.4 µM, the TGI [21] was 33.7 µM and the TGI [22] was 49 µM. For the same molecule, the TGI [23] was 38.3 µM, the TGI [24] was 30 µM and the TGI [25] was 48.5 µM. For the same molecule, the TGI [26] was 31.3 µM, the TGI [27] was 33.5 µM and the TGI [59] was 50.4 µM. For the same molecule, the TGI [28] was 36.6 µM, the TGI [29] was 48.2 µM and the TGI [31] was 95.1 µM. It also gave a TGI [32] of 82.4 µM, a TGI [33] of 60.8 µM and a TGI [34] of 37.8 µM. The TGI [35] was 66.5 µM, the TGI [37] was 27.5 µM and the TGI [38] was 43.1 µM. The TGI [39] was 47.2 µM, the TGI [40] was 40.2 µM and the TGI [41] was 29.8 µM. It also gave a TGI [42] of 34 µM, a TGI [43] of 31.1 µM and a TGI [44] of 32.9 µM. For the same molecule, the TGI [45] was 60.1 µM, the TGI [46] was 78.1 µM and the TGI [47] was 56.3 µM. The TGI [48] was 25.9 µM, the TGI [49] was 35 µM and the TGI [50] was 64.3 µM. It also gave a TGI [51] of 67.6 µM, a TGI [52] of 34.1 µM and a TGI [54] of 82.4 µM. It also gave a TGI [55] of 27.4 µM, a TGI [56] of 32.3 µM and a TGI [57] of 31.8 µM.
